Legend:
H2009 cells [1] = experiment: Cell cycle analysis by PI DNA staining and flow cytometry; format: cell-based, Human; conditions: for effect on cell cycle: H2009 cells
H2009 xenograft = format: in vivo, NOD/SCID mice; conditions: 5 mg/kg based on paclitaxel; for tumor growth rate compared to saline: i.v. tail vein, days 18, 21, 24, 27, 30
[2] = Solubility of the peptide-paclitaxel conjugates; format: physicochemical; conditions: cold water; white powder
[3] = PBS pH 7.4, 37° C, after 96 hours
H460 cells = experiment: Cell viability assay; format: cell-based, Human; conditions: H460.1 column; 10 min exposure followed by 120 h recovery in media
H2009 cells [4] = experiment: Cell viability assay; format: cell-based, Human; conditions: for IC50: 10 min exposure followed by 120 h recovery in media
integrin αvβ6 = conditions: read-out: half-maximal binding affinity; tetramerized H2009.1 peptide; cited from earlier work
[5] = 5 mg/kg based on paclitaxel, 5 injections; data not shown
[6] = test system: H2009 cells (αvβ6-positive); format: binding, Human; conditions: fluorescein-labeled conjugate, 1 hour, flow cytometry
[7] = 1 μM paclitaxel column, time not printed in table (24 h elsewhere in the source)

With `CC(=O)O[C@H]1C(=O)[C@@]2(C)[C@H]([C@H](OC(=O)c3ccccc3)[C@]3(O)C[C@H](OC(=O)[C@H](OC(=O)CCN4C(=O)CC(SC[C@H](NC(=O)[C@H](CCCCNC(=O)[C@H](CCCCNC(=O)CCN5C(=O)CC(SC[C@H](NC(=O)CCOCCOCCOCCOCCOCCOCCOCCOCCOCCOCCOCCOCCNC(=O)[C@H](CC(C)C)NC(=O)[C@H](CCC(N)=O)NC(=O)[C@H](CCCNC(=N)N)NC(=O)[C@H](CC(C)C)NC(=O)[C@@H](NC(=O)[C@H](C)NC(=O)[C@H](CC(C)C)NC(=O)[C@H](CC(=O)O)NC(=O)CNC(=O)[C@@H](N)CCCNC(=N)N)[C@@H](C)O)C(N)=O)C5=O)NC(=O)CCN5C(=O)CC(SC[C@H](NC(=O)CCOCCOCCOCCOCCOCCOCCOCCOCCOCCOCCOCCOCCNC(=O)[C@H](CC(C)C)NC(=O)[C@H](CCC(N)=O)NC(=O)[C@H](CCCNC(=N)N)NC(=O)[C@H](CC(C)C)NC(=O)[C@@H](NC(=O)[C@H](C)NC(=O)[C@H](CC(C)C)NC(=O)[C@H](CC(=O)O)NC(=O)CNC(=O)[C@@H](N)CCCNC(=N)N)[C@@H](C)O)C(N)=O)C5=O)NC(=O)[C@H](CCCCNC(=O)CCN5C(=O)CC(SC[C@H](NC(=O)CCOCCOCCOCCOCCOCCOCCOCCOCCOCCOCCOCCOCCNC(=O)[C@H](CC(C)C)NC(=O)[C@H](CCC(N)=O)NC(=O)[C@H](CCCNC(=N)N)NC(=O)[C@H](CC(C)C)NC(=O)[C@@H](NC(=O)[C@H](C)NC(=O)[C@H](CC(C)C)NC(=O)[C@H](CC(=O)O)NC(=O)CNC(=O)[C@@H](N)CCCNC(=N)N)[C@@H](C)O)C(N)=O)C5=O)NC(=O)CCN5C(=O)CC(SC[C@H](NC(=O)CCOCCOCCOCCOCCOCCOCCOCCOCCOCCOCCOCCOCCNC(=O)[C@H](CC(C)C)NC(=O)[C@H](CCC(N)=O)NC(=O)[C@H](CCCNC(=N)N)NC(=O)[C@H](CC(C)C)NC(=O)[C@@H](NC(=O)[C@H](C)NC(=O)[C@H](CC(C)C)NC(=O)[C@H](CC(=O)O)NC(=O)CNC(=O)[C@@H](N)CCCNC(=N)N)[C@@H](C)O)C(N)=O)C5=O)C(=O)NCCC(=O)O)C4=O)[C@@H](NC(=O)c4ccccc4)c4ccccc4)C(C)=C1C3(C)C)[C@]1(OC(C)=O)CO[C@@H]1C[C@@H]2O` (stereo partly drawn) [compound 3] the G1 (H2009 cells [1]; 1 μM, 24 h) was 44.9, the G2/M (H2009 cells [1]; 1 μM, 24 h) was 39.0 and the Polyploid (H2009 cells [1]; 1 μM, 24 h) was 8.0. The S (H2009 cells [1]; 1 μM, 24 h) was 8.1, the G1 (H2009 cells [1]; 1 μM, 48 h) was 11.4 and the G2/M (H2009 cells [1]; 1 μM, 48 h) was 57.1. For the same molecule, the Polyploid (H2009 cells [1]; 1 μM, 48 h) was 26.9, the S (H2009 cells [1]; 1 μM, 48 h) was 4.5 and the “increase in number of cells in G2/M” value (H2009 cells [1]; 1 μM, at 48 h) was ~ 2 fold. For the same molecule, the “increase in polyploid cells” value (H2009 cells [1]; 1 μM, at 48 h) was 3 fold, the G1 (H2009 cells [1]; 5 μM, 24 h) was 35.8 and the G2/M (H2009 cells [1]; 5 μM, 24 h) was 45.8. The Polyploid (H2009 cells [1]; 5 μM, 24 h) was 11.7, the S (H2009 cells [1]; 5 μM, 24 h) was 6.7 and the G1 (H2009 cells [1]; 5 μM, 48 h) was 23.9. It also gave a G2/M (H2009 cells [1]; 5 μM, 48 h) of 53.9, a Polyploid (H2009 cells [1]; 5 μM, 48 h) of 23.6 and an S (H2009 cells [1]; 5 μM, 48 h) of 8.5. For the same molecule, the “effect on cell cycle” value (H2009 cells [1]; 1 μM, at 24 h) was “the cell cycle remains unperturbed”, the “more G2/M arrest at increased conjugate concentration” value (H2009 cells [1]; increased concentration (5 μM in Table II), at 24 h) was “Approximately 50%” and the “delay of effect on tumor growth relative to free drug” value (H2009 xenograft) was 7 days. For the same molecule, the “tumor growth rate compared to saline” value (H2009 xenograft) was “reduced the rate of tumor growth compared to saline”, the “increase of paclitaxel release with esterase versus PBS” value (porcine esterase; esterase in PBS vs PBS) was 7 fold and the paclitaxel released (porcine esterase; porcine esterase (18u/mL) in PBS, 37° C, by 48 h) was 34.1%. The solubility [2] was “soluble in cold water”, the paclitaxel released [3] was “minimal paclitaxel was released” and the IC50 (H460 cells) was “Not Reached ^b”. For the same molecule, the “time at which reduction of cell viability begins” value (H2009 cells [4]; 1 μM for 10 min, then recovery) was 72 h.
In the case of `CC(C)C[C@H](NC(=O)[C@H](CCC(N)=O)NC(=O)[C@H](CCCNC(=N)N)NC(=O)[C@H](CC(C)C)NC(=O)[C@@H](NC(=O)[C@H](C)NC(=O)[C@H](CC(C)C)NC(=O)[C@H](CC(=O)O)NC(=O)CNC(=O)[C@@H](N)CCCNC(=N)N)[C@@H](C)O)C(=O)NCCOCCOCCOCCOCCOCCOCCOCCOCCOCCOCCOCCOCCC(=O)N[C@@H](CSC1CC(=O)N(CCC(=O)NCCCC[C@H](NC(=O)CCN2C(=O)CC(SC[C@H](NC(=O)CCOCCOCCOCCOCCOCCOCCOCCOCCOCCOCCOCCOCCNC(=O)[C@H](CC(C)C)NC(=O)[C@H](CCC(N)=O)NC(=O)[C@H](CCCNC(=N)N)NC(=O)[C@H](CC(C)C)NC(=O)[C@@H](NC(=O)[C@H](C)NC(=O)[C@H](CC(C)C)NC(=O)[C@H](CC(=O)O)NC(=O)CNC(=O)[C@@H](N)CCCNC(=N)N)[C@@H](C)O)C(N)=O)C2=O)C(=O)NCCCC[C@H](NC(=O)[C@H](CCCCNC(=O)CCN2C(=O)CC(SC[C@H](NC(=O)CCOCCOCCOCCOCCOCCOCCOCCOCCOCCOCCOCCOCCNC(=O)[C@H](CC(C)C)NC(=O)[C@H](CCC(N)=O)NC(=O)[C@H](CCCNC(=N)N)NC(=O)[C@H](CC(C)C)NC(=O)[C@@H](NC(=O)[C@H](C)NC(=O)[C@H](CC(C)C)NC(=O)[C@H](CC(=O)O)NC(=O)CNC(=O)[C@@H](N)CCCNC(=N)N)[C@@H](C)O)C(N)=O)C2=O)NC(=O)CCN2C(=O)CC(SC[C@H](NC(=O)CCOCCOCCOCCOCCOCCOCCOCCOCCOCCOCCOCCOCCNC(=O)[C@H](CC(C)C)NC(=O)[C@H](CCC(N)=O)NC(=O)[C@H](CCCNC(=N)N)NC(=O)[C@H](CC(C)C)NC(=O)[C@@H](NC(=O)[C@H](C)NC(=O)[C@H](CC(C)C)NC(=O)[C@H](CC(=O)O)NC(=O)CNC(=O)[C@@H](N)CCCNC(=N)N)[C@@H](C)O)C(N)=O)C2=O)C(=O)N[C@@H](CS)C(=O)NCCC(=O)O)C1=O)C(N)=O` (stereo partly drawn) [compound 2], the EC50 (integrin αvβ6) is listed as 0.05 nM.
In the case of `CC(=O)O[C@H]1C(=O)[C@@]2(C)[C@H]([C@H](OC(=O)c3ccccc3)[C@]3(O)C[C@H](OC(=O)[C@H](O)[C@@H](NC(=O)c4ccccc4)c4ccccc4)C(C)=C1C3(C)C)[C@]1(OC(C)=O)CO[C@@H]1C[C@@H]2O` [Paclitaxel, reference compound], the G2/M (H2009 cells [1]; [7]) is reported as 73.5, the Polyploid (H2009 cells [1]; [7]) is reported as 14 and the S (H2009 cells [1]; [7]) is reported as 4.1. For the same molecule, the “effect on cell cycle” value (H2009 cells [1]; 1 μM, at 24 h) was “G2/M cell cycle arrest was observed”, the “tumor growth rate compared to saline” value (H2009 xenograft) was “slowed” and the animal weights [5] was “remained steady”. For the same molecule, the IC50 (H460 cells) was 23.6 ± 7.4 nM, the “effect on cell viability within the first 48 h” value (H2009 cells [4]; 1 μM for 10 min, then recovery) was “rapid reduction of cell viability” and the IC50 (H2009 cells [4]) was 14.8 ± 3.3 nM.
For `CC(=O)O[C@H]1C(=O)[C@@]2(C)[C@H]([C@H](OC(=O)c3ccccc3)[C@]3(O)C[C@H](OC(=O)[C@H](OC(=O)CCN4C(=O)CC(SC[C@H](NC(=O)[C@H](CCCCNC(=O)[C@H](CCCCNC(=O)CCN5C(=O)CC(SC[C@H](NC(=O)CCOCCOCCOCCOCCOCCOCCOCCOCCOCCOCCOCCOCCNC(=O)[C@H](CCCNC(=N)N)NC(=O)[C@H](CC(C)C)NC(=O)[C@@H](NC(=O)CNC(=O)[C@H](CCC(N)=O)NC(=O)[C@H](CC(C)C)NC(=O)[C@H](CCCNC(=N)N)NC(=O)[C@H](CC(C)C)NC(=O)[C@H](C)NC(=O)[C@@H](N)CC(=O)O)[C@@H](C)O)C(N)=O)C5=O)NC(=O)CCN5C(=O)CC(SC[C@H](NC(=O)CCOCCOCCOCCOCCOCCOCCOCCOCCOCCOCCOCCOCCNC(=O)[C@H](CCCNC(=N)N)NC(=O)[C@H](CC(C)C)NC(=O)[C@@H](NC(=O)CNC(=O)[C@H](CCC(N)=O)NC(=O)[C@H](CC(C)C)NC(=O)[C@H](CCCNC(=N)N)NC(=O)[C@H](CC(C)C)NC(=O)[C@H](C)NC(=O)[C@@H](N)CC(=O)O)[C@@H](C)O)C(N)=O)C5=O)NC(=O)[C@H](CCCCNC(=O)CCN5C(=O)CC(SC[C@H](NC(=O)CCOCCOCCOCCOCCOCCOCCOCCOCCOCCOCCOCCOCCNC(=O)[C@H](CCCNC(=N)N)NC(=O)[C@H](CC(C)C)NC(=O)[C@@H](NC(=O)CNC(=O)[C@H](CCC(N)=O)NC(=O)[C@H](CC(C)C)NC(=O)[C@H](CCCNC(=N)N)NC(=O)[C@H](CC(C)C)NC(=O)[C@H](C)NC(=O)[C@@H](N)CC(=O)O)[C@@H](C)O)C(N)=O)C5=O)NC(=O)CCN5C(=O)CC(SC[C@H](NC(=O)CCOCCOCCOCCOCCOCCOCCOCCOCCOCCOCCOCCOCCNC(=O)[C@H](CCCNC(=N)N)NC(=O)[C@H](CC(C)C)NC(=O)[C@@H](NC(=O)CNC(=O)[C@H](CCC(N)=O)NC(=O)[C@H](CC(C)C)NC(=O)[C@H](CCCNC(=N)N)NC(=O)[C@H](CC(C)C)NC(=O)[C@H](C)NC(=O)[C@@H](N)CC(=O)O)[C@@H](C)O)C(N)=O)C5=O)C(=O)NCCC(=O)O)C4=O)[C@@H](NC(=O)c4ccccc4)c4ccccc4)C(C)=C1C3(C)C)[C@]1(OC(C)=O)CO[C@@H]1C[C@@H]2O` (stereo partly drawn) [scrambled peptide-paclitaxel conjugate], the “binding to H2009 cells” value [6] was “no binding was observed”, the solubility [2] was “soluble in cold water” and the IC50 (H460 cells) was “Not Reached ^b”. The IC50 (H2009 cells [4]) was “Not Reached ^b”.

From article PMC3195361 (Bioorganic & medicinal chemistry, 2011)
